Results reported in patent US10597387B2, “Methods to treat lymphoplasmacytic lymphoma” (Dana-Farber Cancer Institute, Inc., priority 2013, dated 2020).
pIC50: −log10 of the molar value. Like-named read-outs stand apart in the source and are kept apart here.

What was measured:
BTK = BTK (Homo sapiens (Human), UniProt Q06187); experiment: Invitrogen Select Screening kinase assay; assay type: biochemical; settings: in vitro
Excerpt: The in vitro activity of the compounds described herein in inhibiting TAK1, HCK, and other kinases were obtained using an Invitrogen Select Screening assay as known in the art. The IC50 values determined from this assay are shown below.

ACK = ACK (Homo sapiens (Human), UniProt Q07912); experiment: KiNativ kinase profiling; assay type: binding; settings: Lys1, A375 cells, read-out: inhibition of kinase labeling
AMPKa1, AMPKa2 = experiment: KiNativ kinase profiling; assay type: binding, Homo sapiens; settings: Lys1, 1 μM, A375 cells
ATR = ATR (Homo sapiens (Human), UniProt Q13535); experiment: KiNativ kinase profiling; assay type: binding; settings: ATP, A375 cells, read-out: inhibition of kinase labeling
AurB = AurB (Homo sapiens (Human), UniProt Q96GD4); experiment: KiNativ kinase profiling; assay type: binding; settings: Lys1, A375 cells, read-out: inhibition of kinase labeling
BLK = BLK (Homo sapiens (Human), UniProt P51451); experiment: KiNativ kinase profiling; assay type: binding; settings: Activation Loop, A375 cells, read-out: inhibition of kinase labeling
CDC2 = CDC2 (Homo sapiens (Human), UniProt P06493); experiment: KiNativ kinase profiling; assay type: binding; settings: Lys2, A375 cells, read-out: inhibition of kinase labeling
CDK7 = CDK7 (Homo sapiens (Human), UniProt P50613); experiment: KiNativ kinase profiling; assay type: binding; settings: Lys2, A375 cells, read-out: inhibition of kinase labeling
CK1g1 = CK1g1 (Homo sapiens (Human), UniProt Q9HCP0); experiment: KiNativ kinase profiling; assay type: binding; settings: Lys2, A375 cells, read-out: inhibition of kinase labeling
eEF2K = eEF2K (Homo sapiens (Human), UniProt O00418); experiment: KiNativ kinase profiling; assay type: binding; settings: ATP, A375 cells, read-out: inhibition of kinase labeling
Erk2 = Erk2 (Homo sapiens (Human), UniProt P28482); experiment: KiNativ kinase profiling; assay type: binding; settings: Lys2, A375 cells, read-out: inhibition of kinase labeling
FER = FER (Homo sapiens (Human), UniProt P16591); experiment: KiNativ kinase profiling; assay type: binding; settings: Lys1, A375 cells, read-out: inhibition of kinase labeling
FGR = FGR (Homo sapiens (Human), UniProt P09769); experiment: KiNativ kinase profiling; assay type: binding; settings: Activation Loop, A375 cells, read-out: inhibition of kinase labeling
FYN, SRC, YES = experiment: KiNativ kinase profiling; assay type: binding, Homo sapiens; settings: Activation Loop, 1 μM, A375 cells
ILK = ILK (Homo sapiens (Human), UniProt Q13418); experiment: KiNativ kinase profiling; assay type: binding; settings: Protein Kinase Domain, A375 cells, read-out: inhibition of kinase labeling
JAK1 = JAK1 (Homo sapiens (Human), UniProt P23458); experiment: KiNativ kinase profiling; assay type: binding; settings: Protein Kinase Domain, A375 cells, read-out: inhibition of kinase labeling
Sequence of JAK1 (P23458 whole entry, the tested form may be a part): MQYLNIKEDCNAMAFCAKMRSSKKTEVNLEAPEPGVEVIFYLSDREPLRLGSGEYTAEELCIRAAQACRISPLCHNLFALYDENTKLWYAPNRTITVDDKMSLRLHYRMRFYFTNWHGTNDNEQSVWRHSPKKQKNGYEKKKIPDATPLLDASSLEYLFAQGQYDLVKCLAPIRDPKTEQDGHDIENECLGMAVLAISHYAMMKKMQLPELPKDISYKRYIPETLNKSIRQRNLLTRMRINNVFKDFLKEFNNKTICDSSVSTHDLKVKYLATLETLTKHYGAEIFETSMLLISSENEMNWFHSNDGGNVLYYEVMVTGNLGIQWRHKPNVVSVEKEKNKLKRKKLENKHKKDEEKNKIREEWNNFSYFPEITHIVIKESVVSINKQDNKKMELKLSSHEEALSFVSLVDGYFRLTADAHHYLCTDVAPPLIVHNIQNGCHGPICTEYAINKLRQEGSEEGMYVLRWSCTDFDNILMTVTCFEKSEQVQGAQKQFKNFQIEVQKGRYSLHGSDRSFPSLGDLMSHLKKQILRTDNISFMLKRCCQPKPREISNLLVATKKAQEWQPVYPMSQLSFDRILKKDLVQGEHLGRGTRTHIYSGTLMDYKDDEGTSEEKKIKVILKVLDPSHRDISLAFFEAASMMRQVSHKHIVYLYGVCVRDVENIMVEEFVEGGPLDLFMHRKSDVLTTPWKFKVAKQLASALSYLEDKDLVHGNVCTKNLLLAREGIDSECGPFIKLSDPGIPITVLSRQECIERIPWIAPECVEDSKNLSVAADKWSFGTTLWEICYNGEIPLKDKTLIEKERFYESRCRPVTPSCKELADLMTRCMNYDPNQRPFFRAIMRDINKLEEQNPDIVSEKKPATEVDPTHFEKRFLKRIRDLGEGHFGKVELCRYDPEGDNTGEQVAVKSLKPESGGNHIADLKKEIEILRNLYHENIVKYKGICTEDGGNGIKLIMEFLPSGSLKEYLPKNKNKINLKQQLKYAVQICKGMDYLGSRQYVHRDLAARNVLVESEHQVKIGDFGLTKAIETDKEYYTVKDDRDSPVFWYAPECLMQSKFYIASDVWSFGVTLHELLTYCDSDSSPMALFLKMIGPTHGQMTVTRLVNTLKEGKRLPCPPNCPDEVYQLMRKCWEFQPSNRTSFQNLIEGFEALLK

MAP2K5 = MAP2K5 (Homo sapiens (Human), UniProt Q13163); experiment: KiNativ kinase profiling; assay type: binding; settings: Lys2, A375 cells, read-out: inhibition of kinase labeling
MAP2K7 = MAP2K7 (Homo sapiens (Human), UniProt O14733); experiment: KiNativ kinase profiling; assay type: binding; settings: Lys2, A375 cells, read-out: inhibition of kinase labeling
MAP3K1 = MAP3K1 (Homo sapiens (Human), UniProt Q13233); experiment: KiNativ kinase profiling; assay type: binding; settings: Lys2, A375 cells, read-out: inhibition of kinase labeling
Sequence of MAP3K1 (Q13233 whole entry): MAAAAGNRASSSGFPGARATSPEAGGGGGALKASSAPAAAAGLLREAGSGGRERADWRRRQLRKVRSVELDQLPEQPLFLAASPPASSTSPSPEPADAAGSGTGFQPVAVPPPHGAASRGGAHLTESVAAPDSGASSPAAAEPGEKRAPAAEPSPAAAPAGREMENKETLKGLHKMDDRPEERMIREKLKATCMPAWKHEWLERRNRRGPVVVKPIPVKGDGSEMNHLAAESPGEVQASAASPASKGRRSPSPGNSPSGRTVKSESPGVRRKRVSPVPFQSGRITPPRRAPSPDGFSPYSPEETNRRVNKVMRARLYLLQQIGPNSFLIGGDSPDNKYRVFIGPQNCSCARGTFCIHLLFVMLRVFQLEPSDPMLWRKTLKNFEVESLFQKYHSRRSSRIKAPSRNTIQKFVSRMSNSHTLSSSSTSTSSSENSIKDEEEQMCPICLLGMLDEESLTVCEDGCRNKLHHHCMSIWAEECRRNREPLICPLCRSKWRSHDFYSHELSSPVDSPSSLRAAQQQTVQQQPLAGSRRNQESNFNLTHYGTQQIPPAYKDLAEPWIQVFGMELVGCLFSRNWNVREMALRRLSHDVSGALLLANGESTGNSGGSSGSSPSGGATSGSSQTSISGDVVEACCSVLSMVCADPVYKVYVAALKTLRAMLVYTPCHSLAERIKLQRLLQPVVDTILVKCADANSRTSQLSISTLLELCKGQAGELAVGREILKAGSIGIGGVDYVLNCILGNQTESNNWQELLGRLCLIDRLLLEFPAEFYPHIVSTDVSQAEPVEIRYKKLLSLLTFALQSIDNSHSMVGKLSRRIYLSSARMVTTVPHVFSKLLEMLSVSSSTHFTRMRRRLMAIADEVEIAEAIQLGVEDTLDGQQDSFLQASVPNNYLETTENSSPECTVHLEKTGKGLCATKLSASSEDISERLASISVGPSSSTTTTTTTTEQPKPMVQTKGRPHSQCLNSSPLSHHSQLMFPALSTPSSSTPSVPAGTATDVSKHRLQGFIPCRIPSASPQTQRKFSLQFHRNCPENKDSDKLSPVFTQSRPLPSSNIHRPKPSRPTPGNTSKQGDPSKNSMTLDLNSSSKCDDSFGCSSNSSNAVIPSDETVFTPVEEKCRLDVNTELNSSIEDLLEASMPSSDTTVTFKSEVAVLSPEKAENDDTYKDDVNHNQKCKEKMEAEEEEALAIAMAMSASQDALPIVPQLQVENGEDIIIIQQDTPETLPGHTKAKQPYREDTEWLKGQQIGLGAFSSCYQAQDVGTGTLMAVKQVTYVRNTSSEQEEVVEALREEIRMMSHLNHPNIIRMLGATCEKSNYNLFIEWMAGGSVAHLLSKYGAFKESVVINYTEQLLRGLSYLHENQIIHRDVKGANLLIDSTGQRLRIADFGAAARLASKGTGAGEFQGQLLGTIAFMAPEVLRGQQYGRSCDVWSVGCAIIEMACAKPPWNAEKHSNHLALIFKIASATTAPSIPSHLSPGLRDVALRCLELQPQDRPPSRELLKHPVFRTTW

MST1 = MST1 (Homo sapiens (Human), UniProt Q13043); experiment: KiNativ kinase profiling; assay type: binding; settings: Lys1, A375 cells, read-out: inhibition of kinase labeling
MST2 = MST2 (Homo sapiens (Human), UniProt Q13188); experiment: KiNativ kinase profiling; assay type: binding; settings: Lys1, A375 cells, read-out: inhibition of kinase labeling
MST4, YSK1 = experiment: KiNativ kinase profiling; assay type: binding, Homo sapiens; settings: Lys2, 1 μM, A375 cells
NDR1 = NDR1 (Homo sapiens (Human), UniProt Q15208); experiment: KiNativ kinase profiling; assay type: binding; settings: Lys1, A375 cells, read-out: inhibition of kinase labeling
NDR2 = NDR2 (Homo sapiens (Human), UniProt Q9Y2H1); experiment: KiNativ kinase profiling; assay type: binding; settings: Lys2, A375 cells, read-out: inhibition of kinase labeling
NEK3 = NEK3 (Homo sapiens (Human), UniProt P51956); experiment: KiNativ kinase profiling; assay type: binding; settings: Activation Loop, A375 cells, read-out: inhibition of kinase labeling
NEK7 = NEK7 (Homo sapiens (Human), UniProt Q8TDX7); experiment: KiNativ kinase profiling; assay type: binding; settings: Lys1, A375 cells, read-out: inhibition of kinase labeling
p38a = p38a (Homo sapiens (Human), UniProt Q16539); experiment: KiNativ kinase profiling; assay type: binding; settings: Protein Kinase Domain, A375 cells, read-out: inhibition of kinase labeling
p38d, p38g = experiment: KiNativ kinase profiling; assay type: binding, Homo sapiens; settings: Lys2, 1 μM, A375 cells
PI4KB = PI4KB (Homo sapiens (Human), UniProt Q9UBF8); experiment: KiNativ kinase profiling; assay type: binding; settings: ATP, A375 cells, read-out: inhibition of kinase labeling
PIK3CD = PIK3CD (Homo sapiens (Human), UniProt O00329); experiment: KiNativ kinase profiling; assay type: binding; settings: ATP, A375 cells, read-out: inhibition of kinase labeling
Sequence of PIK3CD (O00329 whole entry): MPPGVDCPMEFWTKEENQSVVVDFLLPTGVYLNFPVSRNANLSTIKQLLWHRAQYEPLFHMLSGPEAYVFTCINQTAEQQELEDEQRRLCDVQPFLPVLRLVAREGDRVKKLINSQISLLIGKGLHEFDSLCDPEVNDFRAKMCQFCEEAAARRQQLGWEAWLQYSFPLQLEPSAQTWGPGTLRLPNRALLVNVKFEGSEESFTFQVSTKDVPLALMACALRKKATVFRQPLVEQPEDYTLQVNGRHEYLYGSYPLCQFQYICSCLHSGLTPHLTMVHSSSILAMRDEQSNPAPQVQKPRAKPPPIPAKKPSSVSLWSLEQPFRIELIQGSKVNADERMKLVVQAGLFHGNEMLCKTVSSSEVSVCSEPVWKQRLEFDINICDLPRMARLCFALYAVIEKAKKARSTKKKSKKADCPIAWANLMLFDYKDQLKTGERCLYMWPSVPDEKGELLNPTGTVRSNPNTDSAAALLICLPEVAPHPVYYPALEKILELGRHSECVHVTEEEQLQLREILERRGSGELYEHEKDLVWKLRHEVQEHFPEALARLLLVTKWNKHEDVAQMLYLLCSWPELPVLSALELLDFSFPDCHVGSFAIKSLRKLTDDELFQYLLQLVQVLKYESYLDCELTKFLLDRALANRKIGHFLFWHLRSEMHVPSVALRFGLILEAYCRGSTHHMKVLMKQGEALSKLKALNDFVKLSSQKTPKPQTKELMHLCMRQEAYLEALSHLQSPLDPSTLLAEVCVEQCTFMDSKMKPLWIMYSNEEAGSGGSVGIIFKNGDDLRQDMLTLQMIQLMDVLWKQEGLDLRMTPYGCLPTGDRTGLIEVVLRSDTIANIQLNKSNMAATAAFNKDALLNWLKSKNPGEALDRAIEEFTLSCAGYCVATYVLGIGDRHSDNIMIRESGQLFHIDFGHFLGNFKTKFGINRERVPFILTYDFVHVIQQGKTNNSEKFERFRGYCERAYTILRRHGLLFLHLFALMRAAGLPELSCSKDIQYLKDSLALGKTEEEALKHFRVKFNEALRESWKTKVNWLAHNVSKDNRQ
Sequence of PIK3CD (P27986 whole entry partner): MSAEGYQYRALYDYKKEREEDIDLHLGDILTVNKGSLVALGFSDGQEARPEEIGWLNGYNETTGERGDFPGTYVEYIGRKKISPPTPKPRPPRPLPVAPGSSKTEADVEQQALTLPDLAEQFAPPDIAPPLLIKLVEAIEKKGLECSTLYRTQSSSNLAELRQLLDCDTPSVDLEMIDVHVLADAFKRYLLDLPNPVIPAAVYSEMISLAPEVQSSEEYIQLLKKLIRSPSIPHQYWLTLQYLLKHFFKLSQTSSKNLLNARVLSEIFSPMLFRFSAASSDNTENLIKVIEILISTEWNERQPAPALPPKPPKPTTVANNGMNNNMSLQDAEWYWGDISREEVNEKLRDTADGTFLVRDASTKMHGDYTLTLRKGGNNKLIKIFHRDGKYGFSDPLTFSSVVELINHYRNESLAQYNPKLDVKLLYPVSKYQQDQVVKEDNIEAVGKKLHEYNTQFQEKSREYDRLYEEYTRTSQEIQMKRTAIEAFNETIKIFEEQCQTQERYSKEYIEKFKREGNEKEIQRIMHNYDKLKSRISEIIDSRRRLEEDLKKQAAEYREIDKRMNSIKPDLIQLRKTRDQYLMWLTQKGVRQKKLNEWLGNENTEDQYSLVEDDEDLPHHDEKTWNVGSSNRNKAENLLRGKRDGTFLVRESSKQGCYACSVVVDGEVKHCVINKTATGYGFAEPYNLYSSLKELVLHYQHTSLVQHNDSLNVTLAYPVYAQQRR

PIP5K3 = PIP5K3 (Homo sapiens (Human), UniProt Q9Y2I7); experiment: KiNativ kinase profiling; assay type: binding; settings: ATP, A375 cells, read-out: inhibition of kinase labeling
PKCi = PKCi (Homo sapiens (Human), UniProt P41743); experiment: KiNativ kinase profiling; assay type: binding; settings: Lys2, A375 cells, read-out: inhibition of kinase labeling
RSK1 domain2 = RSK1 domain2 (Homo sapiens (Human), UniProt Q15418); experiment: KiNativ kinase profiling; assay type: binding; settings: Lys2, A375 cells, read-out: inhibition of kinase labeling
RSK2 domain2 = RSK2 domain2 (Homo sapiens (Human), UniProt P51812); experiment: KiNativ kinase profiling; assay type: binding; settings: Lys2, A375 cells, read-out: inhibition of kinase labeling
SGK3 = SGK3 (Homo sapiens (Human), UniProt Q96BR1); experiment: KiNativ kinase profiling; assay type: binding; settings: Lys1, A375 cells, read-out: inhibition of kinase labeling
Sequence of SGK3 (Q96BR1 whole entry): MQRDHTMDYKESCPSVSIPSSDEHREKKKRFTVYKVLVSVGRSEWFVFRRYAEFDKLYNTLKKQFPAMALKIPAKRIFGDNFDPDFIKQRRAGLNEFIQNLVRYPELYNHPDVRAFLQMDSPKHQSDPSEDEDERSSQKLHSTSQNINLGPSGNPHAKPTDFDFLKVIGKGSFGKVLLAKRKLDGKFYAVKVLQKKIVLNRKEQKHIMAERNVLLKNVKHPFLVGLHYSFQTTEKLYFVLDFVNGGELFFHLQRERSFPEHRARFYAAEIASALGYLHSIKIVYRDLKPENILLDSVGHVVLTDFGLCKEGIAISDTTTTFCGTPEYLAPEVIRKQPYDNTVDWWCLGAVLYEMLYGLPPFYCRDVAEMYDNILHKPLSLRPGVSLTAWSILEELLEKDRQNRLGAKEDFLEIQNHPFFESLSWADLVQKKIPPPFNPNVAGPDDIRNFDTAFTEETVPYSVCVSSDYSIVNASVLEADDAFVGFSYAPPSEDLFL

SLK = SLK (Homo sapiens (Human), UniProt Q9H2G2); experiment: KiNativ kinase profiling; assay type: binding; settings: Lys2, A375 cells, read-out: inhibition of kinase labeling
SYK = SYK (Homo sapiens (Human), UniProt P43405); experiment: KiNativ kinase profiling; assay type: binding; settings: read-out: inhibition of kinase labeling
TLK2 = TLK2 (Homo sapiens (Human), UniProt Q86UE8); experiment: KiNativ kinase profiling; assay type: binding; settings: Lys2, A375 cells, read-out: inhibition of kinase labeling
ULK3 = ULK3 (Homo sapiens (Human), UniProt Q6PHR2); experiment: KiNativ kinase profiling; assay type: binding; settings: Lys1, A375 cells, read-out: inhibition of kinase labeling

Cc1ccc(C(=O)Nc2cccc(C(C)(C)C#N)c2)cc1NC(=O)c1cncc(-c2cccs2)c1 [I-6, N-(5-((3-(2-cyanopropan-2-yl)phenyl)carbamoyl)-2-methylphenyl)-5-(thiophen-2-yl)nicotinamide]
pIC50 (BTK): 5.94
inhibition at 1 µM (ACK): -1.2%
inhibition of kinase labeling (AMPKa1, AMPKa2): 15.3%
inhibition at 1 µM (ATR): 26.2%
inhibition at 1 µM (AurB): -94%
inhibition at 1 µM (BLK): 68.8%
inhibition at 1 µM (CDC2): -7.9%
inhibition at 1 µM (CDK7): -6.8%
inhibition at 1 µM (CK1g1): 14.4%
inhibition at 1 µM (eEF2K): 12%
inhibition at 1 µM (Erk2): -11%
inhibition at 1 µM (FER): -9.6%
inhibition at 1 µM (FGR): 3.5%
inhibition of kinase labeling (FYN, SRC, YES): 55.7%
inhibition at 1 µM (ILK): 17.2%
inhibition at 1 µM (JAK1): 16.6%
inhibition at 1 µM (MAP2K5): 28.7%
inhibition at 1 µM (MAP2K7): -3%
inhibition at 1 µM (MAP3K1): 9.8%
inhibition at 1 µM (MST1): -26.3%
inhibition at 1 µM (MST2): -6.1%
inhibition of kinase labeling (MST4, YSK1): 22%
inhibition at 1 µM (NDR1): -10.5%
inhibition at 1 µM (NDR2): -12.5%
inhibition at 1 µM (NEK3): 10%
inhibition at 1 µM (NEK7): 10.7%
inhibition at 1 µM (p38a): 85.1%
inhibition of kinase labeling (p38d, p38g): 17.8%
inhibition at 1 µM (PI4KB): -15.1%
inhibition at 1 µM (PIK3CD): -6.8%
inhibition at 1 µM (PIP5K3): 17.8%
inhibition at 1 µM (PKCi): -17.5%
inhibition at 1 µM (RSK1 domain2): -22.9%
inhibition at 1 µM (RSK2 domain2): -15.8%
inhibition at 1 µM (SGK3): -7.2%
inhibition at 1 µM (SLK): -19.5%
inhibition at 1 µM (SYK; Activation Loop, A375 cells): -7.9%
inhibition at 1 µM (SYK; Lys1, A375 cells): -38.5%
inhibition at 1 µM (TLK2): -18.8%
inhibition at 1 µM (ULK3): -21.5%
